This note sets out measurements from patent US20250302862A1, “SMALL RNA DRUG FOR INHIBITING ACTIVITY OF CANCER CELLS” (Institute of Basic Medical Sciences Chinese Academy of …, priority 2022, published 2025).

What all share (type): cell-based, human
For data set [1], the system named is breast cancer MCF7 cells. Nature of the data set: Concentration-dependent proliferation inhibition, MTS. Particulars: gradient 0.01-100 noml/L, MTS after 48 h. On the procedure: (§1) 1) Breast cancer MCF7 cells, breast cancer MDA-MB-231 cells, gastric cancer AGS cells, pancreatic cancer HS766T cells, pancreatic cancer ASPC-1 cells, and prostate cancer PC-3 cells with a cell density of more than 90% in 10 cm^2 plates were plated in 96-well according to the cell growth rate. Transfection was performed after 12 h, and the groups (3 wells per group) were divided as follows: • blank control group: 20 uL of opti-MEM • negative control group (NC group) and experimental group: • A. 10 uL of opti-MEM and 0.2 uL of iMax were mixed well for 5 min • B. 10 uL of opti-MEM and small RNA were mixed well (the concentration gradient of experimental group was set as: 0.01 noml/L, 0.03 noml/L, 0.1 noml/L, 0.39 noml/L, 0.78 noml/L, 1.56 noml/L, 3.125 noml/L, 6.25 noml/L, 12.5 noml/L, 25 noml/L, 50 noml/L, 100 noml/L; the final concentration of sRNA in NC group was 100 noml/L) • C. solution A and solution B were mixed well and let stand for 15 min, and then was added at a 20 uL system • Note: 100 uL of nuclease-free water was added to 2 nmol of small RNA dry powder for dissolution at a storage concentration of 20 umol/L
(§2) 2) Detection of cell viability: MTS detection was performed after 48 h.
(§3) Formulation of MTS detection solution was as follows: opti-MEM:MTS A solution:MTS B solution=100:20:1. After removing the supernatant, 100 uL of MTS detection solution was added to each well and incubated for 0.5-2 h. Absorbance values at wavelengths of 490 nm and 630 nm were measured in a microplate reader.
as §1, with “dishes” for “plates”, “96-well plates” for “96-well”

A further data set has as its system gastric cancer AGS cells. The description is as above. Particulars: gradient 0.01-100 noml/L, MTS after 48 h. On the procedure: as §1, §2, §3
as §1, with “dishes” for “plates”, “96-well plates” for “96-well”

For data set [2], the system named is pancreatic cancer ASPC-1 cells. The data set is described as above. To be noted: gradient 0.01-100 noml/L, MTS after 48 h. As for the experimental part:
as §1, §2, §3
as §1, with “dishes” for “plates”, “96-well plates” for “96-well”

Data set [3] concerns pancreatic cancer HS766T cells. The data set is described as above. Particulars: gradient 0.01-100 noml/L, MTS after 48 h. On the procedure: as §1, §2, §3
as §1, with “dishes” for “plates”, “96-well plates” for “96-well”

Data set [4] concerns prostate cancer PC-3 cells. The description is as above. Particulars: gradient 0.01-100 noml/L, MTS after 48 h. On the procedure:
as §1, §2, §3
as §1, with “dishes” for “plates”, “96-well plates” for “96-well”

Data set [5] has as its system breast cancer MCF7 cells. Briefly: Apoptosis detection (Annexin V / PI). To be noted: 100 nmol/L, 48 h. As for the experimental part: (§4) 1) MCF-7 cells with a cell density of more than 90% in 10 cm^2 dishes were plated in 12-well plates according to the cell growth rate, and transfected after 12 h, and the groups were divided as follows: • blank control group (4 wells): 200 uL of opti-MEM per well • negative control group (NC group) and experimental group (3 wells each): • A. 100 uL of opti-MEM and 2 uL of iMax were mixed well for 5 min • B. 100 uL of opti-MEM and 5 uL of small RNA (final concentration 100 nmol/L) were mixed well • C. solution A and solution B were mixed well and let stand for 15 min, and then was added to each well at a 200 uL system • Note: 100 uL of nuclease-free water was added to 2 nmol of small RNA dry powder for dissolution at a storage concentration of 20 umol/L
The supernatant and cells were collected after 48 h and washed twice with pre-chilled PBS. The 4 tubes of cells in the blank control group were added respectively with: (1) 200 uL of 1× binding buffer; (2) 200 uL of 1× binding buffer and 5 uL of Annexin V stain; (3) 200 uL of 1× binding buffer and 5 uL of PI stain; (4) 200 uL of 1× binding buffer, 5 uL of Annexin V stain and 5 uL of PI stain. […] The live cell population and the position of quadrant gate were selected according to the blank control group, and then the apoptosis of the NC group and the experimental group was detected. […]

For data set [6], the system named is prostate cancer PC-3 cells. Nature of the data set: Apoptosis detection (Annexin V / PI). Particulars: 100 nmol/L, 48 h. As for the experimental part:
as §4, with “PC-3” for “MCF-7”, “each): the system of each well was as follows” for “each):”
The supernatant and cells were collected after 48 h and washed twice with pre-chilled PBS. The 4 tubes of cells in the blank control group were added respectively with: (1) 200 uL of 1× binding buffer; (2) 200 uL of 1× binding buffer and 5 uL of Annexin V stain; (3) 200 uL of 1× binding buffer and 5 uL of PI stain; (4) 200 uL of 1× binding buffer, 5 uL of Annexin V stain and 5 uL of PI stain. […] The live cell population and the position of quadrant gate were selected according to the blank control group, and then the apoptosis of the NC group and the experimental group was detected.

For “MDM-sRNA-163: small RNA derived from Maytenus hookeri, sequence UGACUCUAGUCCGACUUUGUGAAAUGACU (listed as RNA, chemistry not given here)”, the “proliferation-inhibiting function (cell activity, MTS)” value (with breast cancer MCF7 cells [1]; with gastric cancer AGS cells; in data set [2]; in data set [3]; in data set [4]) was “concentration-dependent” each time. The apoptosis result (with breast cancer MCF7 cells [5]; in data set [6]) was “promotes” each time.
Turning to “MDM-sRNA-39: small RNA derived from Maytenus hookeri, sequence GGGAUUGUAGUUCAAUUGGUCAGAGCACC (listed as RNA, chemistry not given here)”, the “proliferation-inhibiting function (cell activity, MTS)” value (with breast cancer MCF7 cells [1]; in the data set on gastric cancer AGS cells; in data set [2]; in data set [3]; in data set [4]) was “concentration-dependent” each time. The apoptosis result (with breast cancer MCF7 cells [5]; in data set [6]) was “promotes” each time.
